# Experimental data published in ChEMBL document CHEMBL1151309, “Quanolirones I and II, two new human cytomegalovirus protease inhibitors produced by Streptomyces sp. WC76535” (J Nat Prod, 1998).
# What was measured:
# M109 = assay: Cytotoxicity against mouse M109 cells by XTT assay; type: functional, cell-based
# [1] = Inhibition of GST-fused HCMV protease expressed in Escherichia coli by scintillation counting; design: species or system Human betaherpesvirus 5
SMILES,IC50 (M109),IC50 [1]
Cc1cc(O)c2cc3c(c(O)c2c1)C(=O)c1ccc([C@@H]2C[C@H](O[C@H]4CC[C@H](O[C@H]5C[C@@H](O[C@H]6CC[C@H](O)[C@H](C)O6)[C@H](O)[C@H](C)O5)[C@H](C)O4)[C@@H](O)[C@@H](C)O2)c(O)c1C3=O,12 µM,52 µM
Cc1cc(O)c2cc3c(c(O)c2c1)C(=O)c1ccc([C@H]2C[C@@H](O[C@@H]4CC[C@@H](O)[C@@H](C)O4)[C@H](O)[C@@H](C)O2)c(O)c1C3=O [QUANOLIRONE II],89 µM,35 µM
Cc1cc(O)c2cc3c(c(O)c2c1)C(=O)c1ccc([C@H]2C[C@@H](O[C@H]4CC[C@H](O[C@H]5C[C@@H](O)[C@H](O)[C@@H](C)O5)[C@H](C)O4)[C@H](O)[C@@H](C)O2)c(O)c1C3=O [QUANOLIRONE I],14 µM,14 µM
